Results as given in article PMC10058022, “Physico-Chemical Study of Mn(II), Co(II), Cu(II), Cr(III), and Pd(II) Complexes with Schiff-Base and Aminopyrimidyl Derivatives and Anti-Cancer, Antioxidant, Antimicrobial Applications” (Molecules, 2023).
In brackets after ≈: the same amount, converted by molar mass.

Assays:
[1] = system: A-549 cells (human lung cancer cell line); test: Cytotoxicity against A-549 cells (crystal violet colorimetric viability, 72 h); format: cell-based; details: A-549 human lung cancer cell line, 72 h exposure, average of three independent experiments
Experimental: Cancer is a type of malignant disease in which a group of cells appears to grow in an irregular pattern. The only way to treat this is through surgical intervention or chemotherapy, both of which have negative side effects. Although platinum-based complexes such as cis-platin have been used to treat cancer, it is not effective, so in vitro tests for complexes of manganese, cobalt, copper, chromium, and palladium were conducted against two cancer lines, respectively. A-549 and MRC-5 cells were used as test subjects for the cytotoxic activity of Schiff base and aminopyrimidyl complexes in the concentration range of […]. […] As the concentration of the complexes increased, cell viability decreased (Figure 10).
Figure 10 (a) A-549. The dose-response curves of the cytotoxicity of compounds (1–6). Cells were exposed to different concentrations of the compounds for 72 h. Cell viability was determined by a colorimetric method. (b) MRC-5cell lines. The dose-response curves of the cytotoxicity of compounds (1–6) Cells were exposed to different concentrations of the compounds for 72 h. Cell viability was determined by a colorimetric method.
A-549 cells (human Lung cancer cell line) were obtained from VACSERA Tissue Culture Unit.
It is composed of 0.5% (w/v) crystal violet and 50% methanol then made up to volume with ddH2O and filtered through a Whatmann No.1 filter paper. […]

[2] = DPPH free radical scavenging assay; details: DPPH 0.004% w/v in methanol, absorbance 515 nm, 16 min, three replicates
Experimental: The antioxidant activity of the extract was determined at the Regional Center for Mycology and Biotechnology (RCMB) at Al-Azhar University by the DPPH free radical scavenging assay in triplicate, and average values were considered.
Freshly prepared (0.004% w/v) methanol solution of 2,2-diphenyl-1-picrylhydrazyl (DPPH) radical was prepared and stored at 10 °C in the dark. A methanol solution of the test compound was prepared. About 40 uL aliquot of the methanol solution was added to 3 mL of DPPH solution. Absorbance measurements were recorded immediately with a UV-visible spectrophotometer (Milton Roy, Spectronic 1201). The decrease in absorbance at 515 nm was determined continuously, with data being recorded at 1 min intervals until the absorbance stabilized (16 min). The absorbance of the DPPH radical without antioxidant (control) and the reference compound ascorbic acid were also measured. All the determinations were performed in three replicates and averaged. The percentage inhibition (PI) of the DPPH radical was calculated according to the formula:PI = [{(AC − AT)/AC} × 100] where AC = absorbance of the control at t = 0 min and AT = absorbance of the sample + DPPH at t = 16 min. A 50% inhibitory concentration (IC50) or the concentration required for 50% DPPH radical scavenging activity was calculated.

[3] = system: Bacillus subtilis; test: Antibacterial screening, diffusion agar technique; format: cell-based; details: Bacillus subtilis (NRRL B-543), Gram-positive; well 6.0 mm, 100 μL tested; three replicates; gentamycin 4 μg/mL
Experimental: (§1) The complexes were tested in vitro using a diffusion agar technique; well diameter: 6.0 mm (100 μL tested) on four fungi (Aspergillus fumigatus (RCMB 002008), Candida albicans (RCMB 005003 (1) ATCC 10231), Cryptococcus neoformas (RCMB 0049001) and Syncephalastrum racemosum (RCMB 016001 (1)). The positive control was a fungicide (ketoconazole, 100 μg/mL) as well as four bacteria, two Gram-positive strains (Staphylococcus aureus (ATCC 25923) and Bacillus subtilis (RCMB 015 (1) NRRL B-543)), and two Gram-negative strains (Escherichia coli (ATCC 25922) and Proteus Vulgaris (RCMB 004 (1) ATCC 13315)). The positive control was Streptococcus (gentamycin, 4 μg/mL). The inhibitory activity of a compound against an organism is indicated by a clear area around the disc.

[4] = system: Escherichia coli; test: Antibacterial screening, diffusion agar technique; format: cell-based; details: Escherichia coli (ATCC 25922), Gram-negative; well 6.0 mm, 100 μL tested; three replicates; gentamycin 4 μg/mL
Experimental: as §1

[5] = system: Proteus vulgaris; test: Antibacterial screening, diffusion agar technique; format: cell-based; details: Proteus vulgaris (ATCC 13315), Gram-negative; well 6.0 mm, 100 μL tested; three replicates; gentamycin 4 μg/mL
Experimental: as §1

[6] = system: Staphylococcus aureus; test: Antibacterial screening, diffusion agar technique; format: cell-based; details: Staphylococcus aureus (ATCC 25923), Gram-positive; well 6.0 mm, 100 μL tested; three replicates; gentamycin 4 μg/mL
Experimental: as §1

[7] = system: Aspergillus fumigatus; test: Antifungal screening, diffusion agar technique; format: cell-based; details: RCMB002008; Aspergillus fumigatus (RCMB 002008); well 6.0 mm, 100 μL tested; three replicates; ketoconazole 100 μg/mL
Experimental: as §1

[8] = system: Candida albicans; test: Antifungal screening, diffusion agar technique; format: cell-based; details: ATCC10231; Candida albicans (ATCC 10231); well 6.0 mm, 100 μL tested; three replicates; ketoconazole 100 μg/mL
Experimental: as §1

[9] = system: Cryptococcus neoformas; test: Antifungal screening, diffusion agar technique; format: cell-based; details: RCMB0049001; Cryptococcus neoformas (RCMB 0049001); well 6.0 mm, 100 μL tested; three replicates; ketoconazole 100 μg/mL
Experimental: as §1

[10] = system: Syncephalastrum racemosum; test: Antifungal screening, diffusion agar technique; format: cell-based; details: RCMB016001; Syncephalastrum racemosum (RCMB 016001); well 6.0 mm, 100 μL tested; three replicates; ketoconazole 100 μg/mL
Experimental: as §1

## N.N.[Cl][Pt][Cl] [cisplatin, reference compound]
[1]
  IC50 Value: 7.11 µg/mL

## O=C1O[C@H]([C@@H](O)CO)C(O)=C1O [Ascorbic acid, reference compound]
[2]
  IC50 (antioxidant activity, DPPH radical scavenging): 10210 ± 770 µg/mL (≈ 58 mM)

## Gentamycin [reference compound]
[3]
  Mean Zone of Inhibition: 25.93 mm
[4]
  Mean Zone of Inhibition: 29.83 mm
[5]
  Mean Zone of Inhibition: 25.20 mm
[6]
  Mean Zone of Inhibition: 24.33 mm

## CC(=O)N1CCN(c2ccc(OCC3COC(Cn4ccnc4)(c4ccc(Cl)cc4Cl)O3)cc2)CC1 (stereo not shown) [Ketoconazole, reference compound]
[7]
  zone of inhibition at 100 µg/mL: 17.4 mm
[8]
  zone of inhibition at 100 µg/mL: 20.4 mm
[9]
  zone of inhibition at 100 µg/mL: 24.9 mm
[10]
  zone of inhibition at 100 µg/mL: 15.3 mm
